Data taken from patent US9084826B2, “Fatty acid conjugates of statin and FXR agonists; compositions and method of uses” (Catabasis Pharmaceuticals, Inc., priority 2012, dated 2015).

Test system: PCSK9 secreted from HepG2 cells
Experiment: PCSK9 secretion assay in HepG2 cells (PCSK9 ELISA)
Type: cell-based
Conditions: 16 hours incubation
Procedure: HepG2 cells (from ATCC, Catalog no. HB-8065) were maintained in DMEM (Invitrogen) supplemented with 10% fetal bovine serum (Invitrogen). The day prior to the PCSK9 assay, cells were seeded in 96-well collagen coated plates at 25,000 cells/well.
The compounds of the invention were stored at −20° C. until used. The test article compound was dissolved in 100% ethanol to a 50 mM stock solution. This was then diluted in FBS to a final concentration of 1 mM. This solution was placed in a sonicating water bath for 30 minutes. Subsequent dilutions were then made in FBS supplemented with an equivalent volume of ethanol and mixed by vortexing.
HepG2 cells were seeded onto a collagen coated 96-well plate (Becton Dickinson, Catalog no. 35-4407) the day prior to the assay, as described above. The next day, the cell medium was removed, washed once with […] serum free DMEM to remove any residual PCSK9, and replaced with […] of serum free DMEM. Ten microliters of each compound concentration prepared in FBS was then added. Each concentration of compound was tested in triplicate. The compound was incubated with the cells overnight for 16 hours. Following this incubation, 10 µL of AlamarBlue was added to each well and cells incubated for another 2 hours. The plates were then removed and AlamarBlue fluorescence was measured (excitation, 550 nm and […]) to assess cell viability. Cell culture supernatant was then diluted […] 1× RD5P Calibrator Diluent and PCSK9 ELISA was then performed with […] of this diluted sample, as per the manufacturer's instructions. The ELISA was measured on a Victor X5 multilabel plate reader (PerkinElmer) at an absorbance of 450 nm with background correction measured at 550 nm (The PCSK9 Elisa kits can be purchased from R&D System, Catalog no. DPC900).

[1] = two tested concentrations (6.25 and 25 μM)

SMILES | level of PCSK9 secreted from HepG2 cells [1] | further results
CC(C)c1nc(N(C)S(C)(=O)=O)nc(-c2ccc(F)cc2)c1/C=C/[C@@H](O)C[C@@H](O)CC(=O)O [rosuvastatin, reference compound] | increase | 
CC/C=C\C/C=C\C/C=C\C/C=C\C/C=C\C/C=C\CCC(=O)NCCNC(=O)C[C@H](O)C[C@@H](O)CC[C@@H]1C2C(=C[C@H](C)CC2OC(=O)C(C)(C)CC)C=C[C@@H]1C (stereo partly drawn) [Compound I-1, (3R,7S,8S)-8-((3S,5R)-7-((2-((4Z,7Z,10Z,13Z,16Z,19Z)-docosa-4,7,10,13,16,19-hexaenamido)ethyl)amino)-3,5-dihydroxy-7-oxoheptyl)-3,7-dimethyl-1,2,3,7,8,8a-hexahydronaphthalen-1-yl 2,2-dimethylbutanoate] |  | level of PCSK9 secreted from HepG2 cells (6.25 μM, FIG. 1): no significant change; level of PCSK9 secreted from HepG2 cells (25 μM, FIG. 1): decrease
CC/C=C\C/C=C\C/C=C\C/C=C\C/C=C\CCCC(=O)NCCNC(=O)C[C@H](O)C[C@H](O)/C=C/c1c(-c2ccc(F)cc2)nc(N(C)S(C)(=O)=O)nc1C(C)C [Compound 1-43, (5Z,8Z,11Z,14Z,17Z)—N-(2-((3R,5S,E)-7-(4-(4-fluorophenyl)-6-isopropyl-2-(N-methylmethylsulfonamido)pyrimidin-5-yl)-3,5-dihydroxyhept-6-enamido)ethyl)icosa-5,8,11,14,17-pentaenamide] | did not cause an increase | 
CC/C=C\C/C=C\C/C=C\C/C=C\C/C=C\C/C=C\CCC(=O)NCCNC(=O)C[C@H](O)C[C@H](O)CCn1c(-c2ccc(F)cc2)c(-c2ccccc2)c(C(=O)Nc2ccccc2)c1C(C)C [Compound I-22, 1-((3R,5R)-7-(2-(4Z,7Z,10Z,13Z,16Z,19Z)-docosa-4,7,10,13,16,19-hexaenamidoethylamino)-3,5-dihydroxy-7-oxoheptyl)-5-(4-fluorophenyl)-2-isopropyl-N,4-diphenyl-1H-pyrrole-3-carboxamide] | no significant change | 
CC(C)c1c(C(=O)Nc2ccccc2)c(-c2ccccc2)c(-c2ccc(F)cc2)n1CC[C@@H](O)C[C@@H](O)CC(=O)O [atorvastatin, reference compound] |  | level of PCSK9 secretion from HepG2 cells (1.25, 2.5, 5.0 and 10.0 μM, compared to the control, FIG. 1): significant increase
